{
  "source": "patent US20150039274A1",
  "about": "“SYSTEM AND METHOD FOR PERSONALIZED METABOLIC MODELING” (Ramot at Tel-Aviv University Ltd., priority 2013, published 2015)",
  "test_system": "RPMI-8226 cells",
  "assay": "Cell proliferation of RPMI-8226 cells with doxycycline-inducible MLYCD shRNA, with or without N-acetyl-cysteine",
  "assay_type": "cell-based, human",
  "conditions": "RPMI-8226 shRNA cells; 2 mM N-Acetyl Cysteine",
  "method": "HapMap cells (GM06997, CEPH/UTAH pedigree 13291) were obtained from Coriell Institute and RPMI-8226 and K562 cells were obtained from NCI-Frederick Cancer DCTD Tumor/Cell line Repository. Cells were grown in RPMI 1640 plus 10% fetal bovine serum (FBS) in the presence of 5% carbon dioxide. Cell count was determined using a CASY Cell Counter (Roche Applied Science). Where indicated, cells were incubated with 2 mM N-acetyl-cysteine.\nThe viral supernatant for infection was obtained from the filtered growth media of the packaging cells HEK293T transfected with 3 μg psPAX, 1 μg pVSVG, 4 μg of shRNA contructs and 24 μl Lipofectamine 2000 (Life Technology) and the relevant shRNAs. 5×10^5 cells were then plated on 6-well plates and infected with the viral supernatant in the presence of 4 μg/mL polybrene. After two days, the medium was replaced with selection medium containing 2 μg/mL puromycin.\nThe expression of the shRNA constructs was induced by incubating cells with 2 μg/mL Doxycyclin.",
  "data": [
    {"smiles": "CC(=O)N[C@@H](CS)C(=O)O", "note": "[N-Acetyl-cysteine]", "values": [
      {"measurement": "cell proliferation of MLYCD-deficient cells in the presence of antioxidant", "result": "restored the proliferative defects"}
    ]}
  ]
}
